According to patent US20180055844A1 (Celgene Corporation, priority 2011, published 2018):
Values joined by “and” are separate entries in the source; they are usually repeats but may differ in a detail not shown here. Equal values may be shown once. Read-outs that look alike come from different tables or passages of the source.

Columns and labels:
[1] = tested on: PC-3; test: Solid tumor cell colony formation; type: cell-based; details: Homo sapiens
[2] = tested on: human umbilical vascular endothelial cell (HUVEC); test: HUVEC invasion; type: cell-based
[3] = Oral pharmacokinetics; type: in vivo; details: SCID mouse
[4] = tested on: HUVEC; test: HUVEC proliferation; type: cell-based, human
[5] = tested on: DoHH2 xenograft; test: DoHH2 xenograft model; type: in vivo; details: for tumor growth inhibition: day 12
[6] = tested on: HEP-G2; test: Solid tumor cell colony formation; type: cell-based; details: Homo sapiens, HepG2
[7] = tested on: MM cell lines U266, 100-1 and 1K-2; test: Proliferation of CRBN-sensitive MM cell lines; type: cell-based
[8] = Oral pharmacokinetics; type: in vivo, SD rat
[9] = tested on: HCT15; test: Invasion of solid tumor cells; type: cell-based
[10] = tested on: DLBCL cell lines; test: In vitro DLBCL cell thymidine incorporation assay (panel); type: cell-based; details: 5 days, 3H-thymidine incorporation
Excerpt: Results of 3 independent experiments are shown (mean±SD) in FIG. 2. […] ABC-subtype cells appear more sensitive to the antiproliferative effect than other subtype cells including GCB-DLBCL and PMBL cells.

[11] = tested on: SF295; test: Solid tumor cell colony formation; type: cell-based; details: Homo sapiens, SF-295
[12] = tested on: OVCAR-3; test: Solid tumor cell colony formation; type: cell-based; details: Homo sapiens
[13] = Oral administration for 7 consecutive days in rat; design: species or system male CD-IGS rat; details: in vivo
Protocol: The NOAEL was determined to be 1000 mg/kg/day.

[14] = tested on: megakaryocyte progenitor cells; test: MK colonies (megakaryocyte progenitor cells); type: cell-based
[15] = tested on: HepG2; test: Invasion of solid tumor cells; type: cell-based; details: Homo sapiens; HepG2 (VEGF), hepatocellular
[16] = tested on: DoHH2; test: Cell cycle analysis; type: cell-based
Protocol: (§1) Cells were treated with DMSO or an amount of a compound provided herein for 48 hours. Propidium iodide staining for cell cycle was performed using CycleTEST PLUS (Becton Dickinson) according to manufacturer's protocol. Following staining, cells were analyzed by a FACSCalibur flow cytometer using ModFit LT software (Becton Dickinson).

[17] = tested on: WSU-DLCL2; test: Cell cycle analysis; type: cell-based
Protocol: as §1

[18] = tested on: HCT116; test: Solid tumor cell colony formation; type: cell-based; details: Homo sapiens, HCT-116
[19] = tested on: U87; test: Invasion of solid tumor cells; type: cell-based; details: Homo sapiens, U-87 MG; U87 (PDGF), glioblastoma
[20] = tested on: SK-HEP-1; test: Solid tumor cell colony formation; type: cell-based; details: Homo sapiens, SK-HEP1
[21] = tested on: B cell; test: B cell proliferation; type: cell-based
[22] = Oral pharmacokinetics; type: in vivo; details: Cyno monkey
[23] = tested on: TNFα; test: WB TNFα; type: cell-based; details: Homo sapiens; whole blood
[24] = plasma, 30 mg/kg, SD rat, 30 mpk po
[25] = cynomolgus monkey, plasma, 3 mg/kg, 3 mpk po

Cc1nc2cccc(N)c2c(=O)n1C1CCC(=O)NC1=O (stereo not drawn) [compound of Formula I, 3-(5-amino-2-methyl-4-oxo-4H-quinazolin-3-yl)-piperidine-2,6-dione]
inhibition at 10 µM [1]: 14.8%
IC50 ([2]; read-out: IC50 for inhibition of HGF-induced HUVEC invasion): 110 nM
IC50 ([2]; read-out: IC50 for inhibition of VEGF-induced HUVEC invasion): 0.29 nM
IC50 ([2]; read-out: IC50 for inhibition of bFGF-induced HUVEC invasion): 5.5 nM
AUC ([3]; in vivo, 3 mg/kg, 3 mpk po): 7100 ng·h/mL and 25 µM·h
Cmax ([3]; in vivo, 3 mg/kg, 3 mpk po): 2900 ng/mL and 10 µM
Exposures (AUC(0-t)) versus dose ([3]; up to 30 mg/kg): increased in a dose proportional manner
HUVEC proliferation [4]: did not inhibit
growth factor-induced HUVEC proliferation ([4]; growth factor-induced): either enhanced or did not inhibit
tumor growth inhibition ([5]; 3 mpk in combination with Rituxan (1 mg/kg)): 45%
tumor growth inhibition ([5]; 30 mpk in combination with Rituxan (1 mg/kg)): 55%
delay of time to tumor endpoint ([5]; combination with Rituxan, 30 mg/kg dose): 63%
blood vessels counts in tumor ([5]; in vivo): significantly inhibited
tumor growth ([5]; single agent): inhibited tumor growth
inhibition at 10 µM [6]: 6.9%
proliferation of CRBN-sensitive MM cell lines U266, 100-1 and 1K-2 [7]: inhibit the proliferation
F ([8]; SD rat, 30 mpk po): 53%
AUC [8, 24]: 25000 ng·h/mL and 87 µM·h
Cmax [8, 24]: 4800 ng/mL and 17 µM
half-life ([8]; plasma, oral, 30 mpk, SD rat): 2.7 h
clearance ([8]; plasma, SD rat, read-out: CLp): 11 mL/min/kg
Exposures (AUC(0-t)) versus dose ([8]; up to 30 mg/kg, CD-IDS rat): increased in a dose proportional manner
IC50 ([9]; Homo sapiens, HCT-15, HCT15 (bFGF), colorectal): 7.2 nM
ability to inhibit invasion of HCT-15 cells ([9]; with siCRBN): reduced
concentration starting at which proliferation of several lines of DLBCL cells was significantly (p<0.05) inhibited [10]: 0.1 to 1 µM
inhibition at 10 µM [11]: 12.9%
inhibition at 10 µM [12]: 18%
NOAEL at 7 days ([13]; oral, 7 consecutive days, male CD-IGS rat): 1000 mg/kg/day
exposure versus dose ([13]; rat): near dose proportional exposure increases
inhibition of megakaryocyte progenitor cells ([14]; 10 μM): did not inhibit
IC50 ([14]; read-out: Immature MK colonies IC50): > 10000 nM
IC50 ([14]; read-out: Intermediate MK colonies IC50): > 10000 nM
IC50 [15]: < 1 nM
G1 arrest [16]: induced G1 arrest
G1 arrest [17]: induced G1 arrest
inhibition at 10 µM [18]: 13%
IC50 [19]: 80 nM
inhibition at 10 µM [20]: 6%
EC50 [21]: 15 nM
F ([22]; 3 mpk po): 32%
AUC [22, 25]: 12000 ng·h/mL and 43 µM·h
Cmax [22, 25]: 3300 ng/mL and 11 µM
half-life ([22]; cynomolgus monkey, plasma, oral, 3 mpk): 5.8 h
clearance ([22]; cynomolgus monkey, plasma, read-out: CLp): 1.2 mL/min/kg
IC50 [23]: 164 nM
